In patent publication US9649308B2, “Benzamide-containing compounds and their use in the treatment of pain” (H. Lundbeck A/S, priority 2012, dated 2017):

Target: human P2X7 receptor (Homo sapiens (Human), UniProt Q99572)
Assay: P2X7 FLIPR antagonist assay (BzATP-stimulated, 293 HEK cells stably expressing P2X7 receptor)
Format: cell-based
Details: Table 1, exemplified IC50 values; antagonist activity vs BzATP
Description: This example illustrates representative assays for use in evaluating the test compounds for antagonist activity. Compounds of the present invention were tested in vitro for their ability to act as antagonists to the P2X7 receptor.
Cells were plated to cell density of approximately 15,000 cells/well in 384-well assay plates (50 μl/well) with 1.5% low serum media (DMEM, 1.5% BCS, 1% L-glut (2 mM), 1% P/S).
Cells were plated to cell density of approximately 15,000 cells/well in 384-well assay plates (50 μl/well) with 1.5% low serum media (DMEM, 1.5% FBS, 1% L-glut (2 mM), 10 mM HEPES, 1% P/S). Cells were plated 24 hours prior to assay. Cells expressing human, rat or mouse P2X7 receptor were assayed in the following manner.
Fluo-4 NW dye mix (Molecular Probes, Inc., Eugene, Oreg., USA) was prepared in buffer (see manufacturer's instructions). Cell plates were removed from the 37° C. incubator, the media discarded and then 30 μL of dye was added to each well. Plates were placed in the 37° C., non-CO2 incubator for 30 minutes and then room temperature for 30 minutes.
B) Agonist only mixture was prepared with BzATP at a single concentration in buffer (concentration determined by dose response).
Compound mixtures (A) were added to assay plates containing cells and placed at room temperature for 30 minutes, then BzATP (B) was added. Fluorescence was read using the Tetra FLIPR® (Molecular Devices, Inc., Sunnyvale, Calif., USA) and IC50 values were calculated by standard methods to determine antagonist activity.

human P2X7 receptor, sequence (Q99572 whole entry): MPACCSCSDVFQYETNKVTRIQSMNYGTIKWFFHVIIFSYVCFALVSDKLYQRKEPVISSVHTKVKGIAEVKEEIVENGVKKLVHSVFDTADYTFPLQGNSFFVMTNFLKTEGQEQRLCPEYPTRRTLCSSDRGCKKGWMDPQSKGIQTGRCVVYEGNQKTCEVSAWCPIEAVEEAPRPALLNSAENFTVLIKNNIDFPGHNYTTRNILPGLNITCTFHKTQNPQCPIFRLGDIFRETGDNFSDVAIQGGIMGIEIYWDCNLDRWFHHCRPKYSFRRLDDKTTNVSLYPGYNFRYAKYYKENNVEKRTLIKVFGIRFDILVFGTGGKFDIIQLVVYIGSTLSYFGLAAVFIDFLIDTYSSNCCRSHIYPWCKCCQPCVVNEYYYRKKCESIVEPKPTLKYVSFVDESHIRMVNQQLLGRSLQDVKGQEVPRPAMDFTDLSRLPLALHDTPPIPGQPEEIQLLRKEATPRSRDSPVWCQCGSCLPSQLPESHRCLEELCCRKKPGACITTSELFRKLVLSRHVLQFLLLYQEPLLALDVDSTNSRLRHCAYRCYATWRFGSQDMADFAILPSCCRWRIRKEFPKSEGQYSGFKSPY

Structure (SMILES) | IC50 [nM]
Cc1ncc(C(CNC(=O)c2c(F)cccc2Cl)c2ccncc2)cn1 (stereo not shown) [2-chloro-6-fluoro-N-[2-(2-methylpyrimidin-5-yl)-2-(4-pyridyl)ethyl]benzamide] | 640
Cc1ncc(C2(C(C)NC(=O)c3c(F)cccc3Cl)CCOCC2)cn1 (stereo not shown) [2-chloro-6-fluoro-N-[1-[4-(2-methylpyrimidin-5-yl)tetrahydropyran-4-yl]ethyl]benzamide] | 55
O=C(NCC1(c2cnc(C(F)(F)F)nc2)CCOCC1)c1ccccc1Cl [2-chloro-N-[[4-[2-(trifluoromethyl)pyrimidin-5-yl]tetrahydropyran-4-yl]methyl]benzamide] | 4400
Cc1ncc(C(CNC(=O)c2cccc(Cl)c2Cl)c2ccncc2)cn1 (stereo not shown) [2,3-dichloro-N-[2-(2-methylpyrimidin-5-yl)-2-(4-pyridyl)ethyl]benzamide] | 50

These reach a lower IC50. Values come first.

IC50 [nM] | Structure (SMILES)
16 | Cc1ncc(C(CNC(=O)c2cccc(Cl)c2Cl)C2CCC(F)(F)CC2)cn1 (single isomer, unassigned; (-)) [(−)2,3-dichloro-N-[2-(4,4-difluorocyclohexyl)-2-(2-methylpyr] [(−)2,3-dichloro-N-[2-(4,4-difluorocyclohexyl)-2-(2-methylpyrimidin-5-yl)ethyl]benzamide]
8.4 | Cc1ncc(C(CNC(=O)c2cccc(Cl)c2Cl)C2CCC(F)(F)CC2)cn1 (single isomer, unassigned; (+)) [(+)2,3-dichloro-N-[2-(4,4-difluorocyclohexyl)-2-(2-methylpyr] [(+)2,3-dichloro-N-[2-(4,4-difluorocyclohexyl)-2-(2-methylpyrimidin-5-yl)ethyl]benzamide]
1.9 | O=C(NCC(CC1CC1)c1ccc(C(F)F)nc1)c1cccc(Cl)c1Cl (single isomer, unassigned; (-)) [(−)2,3-dichloro-N-[3-cyclopropyl-2-[6-(difluoromethyl)-3-pyr] [(−)2,3-dichloro-N-[3-cyclopropyl-2-[6-(difluoromethyl)-3-pyridyl]propyl]benzamide]
